The text below walks through data of US20110183891A1 (priority 2009, published 2011).

Entries after “also recorded” stand apart in the source; their conditions may differ. Positions of bridges follow the written chain, without caps; N, C: chain ends. Non-standard residues stand in square brackets, D forms with d. Residues, ends and D or L forms follow the SMILES beside them. hArg = N=C(N)NCCCC[C@H](N)C(=O)O; Mpa = O=C(O)CCS

The target of series [1] is integrin of A549 cells (human lung carcinoma cells).
In series [2] the test system is SAP 6 binding to human platelets. As to conditions: for inhibition of SAP 6 binding to human platelets: ADP-activated platelets, Alexa Fluor 488 SAP 6.
Method: Cells were incubated with labeled enzyme together with ADP and inhibitors respectively at 40° C., then pellets were resuspended in 100 ml Hepes-Tyrode buffer, and fluorescence measured by TECAN (Ex./Em.=488 nm/519 nm). […] T test (mean with SEM), n=3, *P<0.05, **P<0.001.
Recombinnat C. albicans SAP 6 was labeled with Alexa Fluor® 488 based on the Invitrogen Alexa Fluor® 488 protein labeling kit manual. […] To obtain the pure platelets, it needs to be further isolated as follows: (1) carefully transfer 10 ml platelets (including rich plasma) to a 15 ml tube and add 1/10 volume of ACD anticoagulant (6.25 g sodium citrate.2H2O, 3.1 g citric acid anhidrous, 3.4 g D-glucose in 250 ml H2O); (2) pellet platelets by centrifuged at 3000 rpm for 5 minutes at room temperature (note: after centrifugation, supernatant still contains significant amount of platelets and it can be collected for experiments); (3) resuspend the pellet in ˜1 ml Hepes-Tyrode buffer pH=7.4 (134 mM sodium chloride, 12 mM sodium bicarbonate, 2.9 mM potassium chloride, 0.34 mM sodium phosphate monobasic, 5 mM Hepes, 5 mM glucose, 1% BSA). When the human platelets were ready, they were incubated labeled SAP 6 with relative amount of platelets at 4° C., room temperature and 37° C. for 2 h, 1 h and 30 min respectively. The mixtures were washed by Hepes-Tyrode buffer two times at 1500 rpm for 8 min. Resuspended the pellets in Hepes-Tyrode buffer and mounted on glass slides. The glass slides were imaged by the epifluorescence microscope for simultaneous detection of Platelet/SAP 6-AlexaFluor-488 fluorescence (FIGS. 3A-B).
Purified recombination C. albicans SAP 6 was labeled by the Alexa Fluor° 488 Protein Labeling Kit from Invitrogen. […] Fifty μl purified human platelets were added into the total 100 μl reaction mixture. A gradient of ADP concentrations (0.25 μM, 0.5 μM and 1 μM) was designed to test if ADP can activate platelets during the binding assay (FIG. 4A).
Series [3] deals with SAP 6 binding to A549 cells. The experiment in a line: Inhibition of labeled SAP 6 binding to human lung carcinoma A549 cells (FACS). In kind it is cell-based. As to conditions: for ratio of positive cells in R4: 400 μM inhibitor + labeled SAP 6, cells + labeled SAP 6 alone 3.23%, cells only 0.69%; for inhibition of SAP 6 binding to A549 cells: 10° C. for 30 min, FACS. Here is the method:
RGDS peptide or Integrilin® inhibition assay and cell viability assay. Grew human lung carcinoma A 549 cell and harvested the cells with 46×10^4 per ml. Changed the medium from complete growth medium into D-MEM/F-12 without phenol red; and transferred the aliquot volume of 0.2 ml cells into 1.5 ml sterile tubes. Added 50 μl of 2.4 mM RGDS peptide and Integrilin® into sample III and sample IV respectively, incubated all samples at 37° C. for 10 min. Then, added […] labeled Fluoro®-488 SAP 6 into Sample II, Sample III and Sample IV (Sample I is negative control, added 100 μl medium inside). Incubated the four mixtures at 10° C. for 30 min, and then centrifuged the cell cultures at 400 g at 10° C. for 5 min to remove the suspension. Washed the cells 1-2 times with 1 ml D-MEM/F-12 medium without phenol red to remove the unbound compounds. Sort the negative (non-labeling SAP 6) and positive (binding labeled SAP 6) cells by fluorescence-activated cell-sorting (FACS). […] It is often considered as a negative control.

The conditions of series [4]: cited from earlier work.
The next series has as its system A549 cells. The experiment in a line: Morphology assay, rescue of apoptosis of A549 cells induced by SAP 6. In kind it is cell-based, human. Particulars: bright-field images after two weeks incubation, data not shown.

“Integrilin® (C35H49N11O9S2, molecular weight 831.96) (peptide)”: in series [1], the ratio of positive cells in R4 turned out to be 2.42%.
Take `N=C(N)NCCCC[C@@H]1NC(=O)CCSSC[C@@H](C(N)=O)NC(=O)[C@@H]2CCCN2C(=O)[C@H](Cc2c[nH]c3ccccc23)NC(=O)[C@H](CC(=O)O)NC(=O)CNC1=O` [Integrilin®] ([Mpa][hArg]GDWPC-NH2; disulfide 1-7): in series [2], the “inhibition of SAP 6 binding to human platelets” value was “dose-dependent inhibition”. In addition, in series [3], the “ratio of positive cells in R4” value is 2.42% and the “inhibition of SAP 6 binding to A549 cells” value (shortened to “inhibition … to A549 cells”) is given as “can inhibit; also recorded: significantly inhibit”.
Regarding `Clc1ccc(COC(Cn2ccnc2)c2ccc(Cl)cc2Cl)cc1` (stereo not shown) [Econazole], in series [4] (in vivo), the “absorbed into the blood” value was “Less than 1%”.
For `Clc1ccccc1C(c1ccccc1)(c1ccccc1)n1ccnc1` [Clotrimazole], in series [4] (in vivo), the “absorption after application to the skin” value is reported as “less than 0.5%” and the “absorption from the vagina” value was 3-10%.
Take “SDGRG: reverse peptide with no competition for integrin binding, negative control”: the results for the “inhibition … to A549 cells” value in series [3] and in series [3] (listed as RDGRG) were “significantly less inhibition” and “less inhibitory”, respectively.
For the molecule Arg-Gly-Asp-Ser (RGDS), in series [2], the “inhibition of SAP 6 binding to human platelets” value is reported as “dose-dependent inhibition”. The “inhibition of SAP 6 binding to human platelets, compared between inhibitors” value in series [2] (FIG. 4B) was “much stronger than that of Integrilin®”. For the same molecule, in the series on A549 cells, the “rescue of apoptosis of A549 cells induced by SAP 6” value is listed as “can rescue the apoptosis”. For the same molecule, in series [3], the “ratio of positive cells in R4” value was determined as 1.68% and the “inhibition … to A549 cells” value is “much more inhibition than that of Integrilin®; also recorded: significantly inhibit”.
Turning to “secreted aspartic protease 6 (SAP 6) from Candida albicans, recombinant (from UniProt P43095) (enzyme)”, in series [1], the ratio of positive cells in R4 amounted to 3.23%.
As to `CCC(C)n1ncn(-c2ccc(N3CCN(c4ccc(OCC5COC(Cn6cncn6)(c6ccc(Cl)cc6Cl)O5)cc4)CC3)cc2)c1=O` (stereo not shown) [Itraconazole], in series [4] (in vivo, po), the “absorption in the fasting state relative to drug taken with food” value is reported as 30%.
Turning to `OC(Cn1cncn1)(Cn1cncn1)c1ccc(F)cc1F` [Fluconazole], the “absorption from the GI tract” value in series [4] (in vivo, po) is “almost completely absorbed”.
In the case of `CC(=O)N1CCN(c2ccc(OCC3COC(Cn4ccnc4)(c4ccc(Cl)cc4Cl)O3)cc2)CC1` (stereo not shown) [Ketoconazole], the peak plasma concentrations in series [4] (oral doses 200-800 mg) is 4 to 20 µg/mL.
Turning to RGDS [RGDS peptide (Arg-Gly-Asp-Ser)], in series [1], the ratio of positive cells in R4 stood at 1.68%.
